Literature values as cited in patent US8461106B2, “Biofilm prevention using lactoferrin” (The Trustees of the University of Pennsylvania, priority 2007, dated 2013).

System: pseudomonas biofilms

Q: For gentamicin, which “MBEC for pseudomonas biofilms relative to MIC for planktonic pseudomonas” value is on record?
A: 60 fold
